Experimental findings from patent US20140349396A1, “Compositions and Methods Relating to Clonal Progenitor Cells” (priority 2011, published 2014) are described below.

This test deals with myoblasts. As to the kind of experiment: Culture of hES-derived clonal myoblasts with or without the TGFβ inhibitor. Type of test: cell-based, human. Conditions: removal of SB431542 together with switch from Matrigel to gelatin substrate (FIG. 11). The text has this: FIG. 11 is a photomicrograph showing myoblasts grown on Matrigel® in the presence of a TGFβ inhibitor (SB431542)(top) and myoblasts switched to gelatin without the TGFβ inhibitor.

Regarding `NC(=O)c1ccc(-c2nc(-c3ccc4c(c3)OCO4)c(-c3ccccn3)[nH]2)cc1` [SB431542], the proliferation of myoblasts entry was “increased proliferation”.
